Details: Hot wire method

C=C(F)C(F)(F)F [2,3,3,3-tetrafluoro-1-propene]
Details | thermal conductivity [W/m/K]
283.75 K, 88 kPa, Gas | 0.0125
283.88 K, 199 kPa, Gas | 0.01243
283.93 K, 20590 kPa, Liquid | 0.07977
283.98 K, 395 kPa, Gas | 0.01256
284.1 K, 309 kPa, Gas | 0.01245
284.15 K, 20592 kPa, Liquid | 0.07943
284.2 K, 89 kPa, Gas | 0.01254
284.31 K, 197 kPa, Gas | 0.01245
284.67 K, 91 kPa, Gas | 0.01256
291.15 K, 109 kPa, Gas | 0.01341
291.17 K, 246 kPa, Gas | 0.01364
291.37 K, 109 kPa, Gas | 0.01324
291.37 K, 244 kPa, Gas | 0.01349
291.59 K, 242 kPa, Gas | 0.01339
291.6 K, 109 kPa, Gas | 0.01311
291.83 K, 240 kPa, Gas | 0.01331
291.85 K, 109 kPa, Gas | 0.01303
292.07 K, 238 kPa, Gas | 0.01328
292.07 K, 432 kPa, Gas | 0.01333
292.1 K, 109 kPa, Gas | 0.01299
292.1 K, 342 kPa, Gas | 0.01323
292.36 K, 109 kPa, Gas | 0.0132
292.39 K, 429 kPa, Gas | 0.01328
292.43 K, 342 kPa, Gas | 0.01327
292.51 K, 245 kPa, Gas | 0.01312
292.67 K, 538 kPa, Gas | 0.01326
292.73 K, 428 kPa, Gas | 0.01333
292.74 K, 109 kPa, Gas | 0.01324
292.78 K, 343 kPa, Gas | 0.01325
292.88 K, 243 kPa, Gas | 0.01315
293.03 K, 536 kPa, Gas | 0.01339
293.08 K, 428 kPa, Gas | 0.01323
293.14 K, 109 kPa, Gas | 0.01331
293.15 K, 343 kPa, Gas | 0.01331
293.28 K, 241 kPa, Gas | 0.01321
293.38 K, 532 kPa, Gas | 0.01333
293.46 K, 428 kPa, Gas | 0.01337
293.55 K, 343 kPa, Gas | 0.01331
293.57 K, 109 kPa, Gas | 0.01327
293.7 K, 239 kPa, Gas | 0.01323
294.03 K, 109 kPa, Gas | 0.01333
301.39 K, 199 kPa, Gas | 0.01436
301.41 K, 95 kPa, Gas | 0.01419
301.62 K, 199 kPa, Gas | 0.0142
301.64 K, 95 kPa, Gas | 0.01403
301.86 K, 199 kPa, Gas | 0.0141
301.88 K, 95 kPa, Gas | 0.01395
301.95 K, 868 kPa, Liquid | 0.06212
301.98 K, 5731 kPa, Liquid | 0.06593
302.03 K, 10752 kPa, Liquid | 0.06904
302.06 K, 867 kPa, Liquid | 0.06223
302.08 K, 16026 kPa, Liquid | 0.07261
302.09 K, 5728 kPa, Liquid | 0.0658
302.11 K, 199 kPa, Gas | 0.01401
302.13 K, 10752 kPa, Liquid | 0.06936
302.14 K, 95 kPa, Gas | 0.01385
302.16 K, 648 kPa, Gas | 0.0142
302.18 K, 16021 kPa, Liquid | 0.0724
302.26 K, 510 kPa, Gas | 0.01411
302.37 K, 199 kPa, Gas | 0.01396
302.38 K, 350 kPa, Gas | 0.01405
302.42 K, 95 kPa, Gas | 0.01379
302.43 K, 868 kPa, Liquid | 0.06253
302.45 K, 5727 kPa, Liquid | 0.06616
302.47 K, 10752 kPa, Liquid | 0.06961
302.48 K, 635 kPa, Gas | 0.01423
302.5 K, 16022 kPa, Liquid | 0.07296
302.54 K, 20560 kPa, Liquid | 0.07444
302.56 K, 199 kPa, Gas | 0.01413
302.58 K, 865 kPa, Liquid | 0.06226
302.58 K, 5727 kPa, Liquid | 0.06624
302.59 K, 510 kPa, Gas | 0.01416
302.6 K, 10751 kPa, Liquid | 0.06953
302.62 K, 16020 kPa, Liquid | 0.0724
302.66 K, 20555 kPa, Liquid | 0.07461
302.74 K, 350 kPa, Gas | 0.01409
302.78 K, 95 kPa, Gas | 0.01418
302.82 K, 634 kPa, Gas | 0.01428
302.93 K, 199 kPa, Gas | 0.01415
302.94 K, 510 kPa, Gas | 0.01416
302.96 K, 5727 kPa, Liquid | 0.06618
302.96 K, 10747 kPa, Liquid | 0.06954
302.97 K, 16018 kPa, Liquid | 0.07247
302.98 K, 865 kPa, Liquid | 0.0622
303.01 K, 20553 kPa, Liquid | 0.07485
303.11 K, 350 kPa, Gas | 0.01412
303.13 K, 5725 kPa, Liquid | 0.06595
303.13 K, 10746 kPa, Liquid | 0.06929
303.13 K, 16018 kPa, Liquid | 0.0723
303.15 K, 20550 kPa, Liquid | 0.07489
303.16 K, 864 kPa, Liquid | 0.0621
303.17 K, 638 kPa, Gas | 0.01429
303.31 K, 509 kPa, Gas | 0.01414
303.33 K, 199 kPa, Gas | 0.01417
303.5 K, 16015 kPa, Liquid | 0.07239
303.51 K, 350 kPa, Gas | 0.01407
303.51 K, 10746 kPa, Liquid | 0.06924
303.51 K, 20552 kPa, Liquid | 0.07485

Liquid
Details | thermal conductivity [W/m/K]
293.15 K | 0.06515
303.15 K | 0.06204

— the NIST ThermoML archive (doi:10.1021/je200811n)
